Test results from US20230000955A1, “THROMBOMODULIN FUNCTIONAL DOMAINS FOR USE IN PROMOTING OSTEOBLAST FUNCTIONS AND BONE HEALING” (BLUE BLOOD BIOTECH CORP., priority 2019, published 2023).

Assays:
[1] = test system: protein C; details: cited from earlier work
[2] = test system: MC3T3-E1 cells; assay: Proliferation assay (WST-1); type: cell-based; details: 1% FBS
Description: Proliferation assay. MG63 cells were treated with various concentrations of rTMD23 for 1, 4, 7 days. The medium was replaced every 2-3 days. At the end, the amount of living cells in each well was measured with crystal violet assay. The cells in each well were washed by PBS twice right before staining. Crystal violet (0.5%, 300 μL) were added in each well for 15 min, followed by ddH2O rinse at least five times. Acetic acid (10%, 300 μL) were added to dissolute the crystal violet. Then, taking 100 μL/well into a 96 well plate to get an OD595 measurement. A proliferation assay on MC3T3-E1 cells with various concentrations of a variant of TMD23 was performed. Briefly, MC3T3-E1 cells in 96-well plates were treated with rTMD23NA at various concentrations for 1, 3, 5 days. The number of living cells in each well was measured with WST-1 reagent. The cells in each well were washed by DMEM medium twice right before staining with 100 μL of 10% WST-1 in DMEM. The absorption at A450 nm-A690 nm of each well was measured.
Human osteoblast-like cell line MG63 and osteoblast cell line MC3T3-E1 were used in the cell proliferation assay. Briefly, different concentrations of rTMD23 and rTMD23NA, which is a variant form of rTMD23, were respectively added to MG63 or MC3T3-E1 cell culture containing 1% FBS. […] The OD595 of the cell lysate in 10% acetic acid was measured to obtain the relative cell count in each well.

[3] = test system: mice; assay: Calvarial bone defect healing with DCI treatment (μCT, H&E); type: in vivo, mouse; details: DCI alone
Description: FIGS. 8A-F show the effect of the TMD1 and TMD23 on calvarial bone healing. (8A) Cell migration, (8B) proliferation and (8C) mineralization of MG63 cells treated with the indicated dose of rTMD1. (8D) Calvarial bone healing of TM wild-type TM^wt/wt and TM domain 1 (TMD1)-deleted TM^LeD/LeD mice. (8E) μCT scanning and (8F) HE stain were used to evaluate the effect of vehicle, dichloroisocoumarin (DCI) and DCI plus rTMD23 or rTMD1 (100 μg/kg) on bone healing after a calvarial defect was created in mice. N=5 per group. Black bar=100 μm. White bar=1 mm. Dotted line indicates the section region. ***P<0.001.
Calvarial bone defect healing. Male mice were randomly assigned to designated groups. After anesthesia, a 4 mm-diameter defect on the calvaria was created and the wound was sutured. A combination of dichloroisocoumarin (DCI) (1 mM) or rTMD23 (0, 10, 100 μg/kg) and U0126 (20 μM) was subcutaneously injected once near the calvarial bone opening at week 1 after the surgery. Bone healing was monitored radiographically using μCT (Skyscan 1076, Antwerp, Belgium) and histologically at indicated time points (weeks 0 and 8) after the surgery. […] The quantification of the removed and regenerated bone volume (mm^3) performed by a 3D CT analyzer software (CTAN; Skyscan). […]

rTMD23NA: recombinant TMD23 variant with two substitutions Asn364Ala and Asn391Ala, SEQ ID NO: 3 (274aa)
protein C activation activity [1]: little or no protein C activation activity | cell proliferation (absorbance, WST-1) [2]: enhance cell proliferation

O=c1oc(Cl)c(Cl)c2ccccc12 [DCI, dichloroisocoumarin]
regeneration of calvarial bone defect (μCT and H&E) [3]: reduced regeneration of calvarial bone defect
